Consider one compound from patent US11738063B2, “Pharmaceutical composition for preventing or treating neurodegenerative diseases which includes flower extract of Daphne genkwa or fractions thereof as active ingredient” (KOREA RESEARCH INSTITUTE OF BIOSCIENCE AND BIOTECHNOLOGY, priority 2016, dated 2023).

Series [1] relates to Salmonella typhimurium TA100. The series is described as follows: Bacterial reverse mutation assay, TA100. As to conditions: TA100, S9+, 2.0 μg/plate, positive control.
Series [2] relates to Salmonella typhimurium TA98. Briefly: Bacterial reverse mutation assay, TA98. As to conditions: TA98, S9+, 1.0 μg/plate, positive control.
For series [3], the system named is Salmonella typhimurium TA1537. Briefly: Bacterial reverse mutation assay, TA1537. The following applies: TA1537, S9+, 3.0 μg/plate, positive control.
The subject of series [4] is Escherichia coli WP2uvrA (pKM101). Briefly: Bacterial reverse mutation assay, WP2uvrA (pKM101). The following applies: S9+, 2.0 μg/plate, positive control.
Series [5] has as its system Salmonella typhimurium TA1535. Briefly: Bacterial reverse mutation assay, TA1535. As to conditions: TA1535, S9+, 3.0 μg/plate, positive control.

Where “and” joins values, the source holds several entries; their conditions need not be identical. Equal values may be shown once.

Regarding `Nc1ccc2cc3ccccc3cc2c1` [2-Aminoanthracene (2-AA), 2-Aminoanthracene], the “Mean revertant colony count” value in series [1] is 592 and 838; in series [2], 362 and 440; in series [3], 129 and 220; in series [4] it was 462 and 545; in series [5] it was 101.
